What was measured:
P19 cells = conditions: cited from earlier work
[1] = tested on: human totipotent stem cells; conditions: totipotent stem cells (Xu et al. 2002); cited from earlier work
GTR1 stem cells [2] = assay: RT-PCR detection of cardiospecific transcripts (MHC, MLC) in GTR1 cells; assay type: cell-based, murine; conditions: 1 μM chelerithrine with retinoic esters of hyaluronic acid 0.75 mg/ml, 10 days; puromycin-selected cardiomyocytes
Description: Analysis of gene expression. Total RNA has been extracted from stem cells as described by Ventura et al. (Ventura C et al. J Biol. Chem. 1997; 272: 6685-6692). The levels of specific mRNAs have been analyzed by “RNase protection”, using [^32P]CTP radiolabeled cRNA probes (antisense mRNA) specific for each transcript of interest, according to a previously described protocol (Ventura C et al. J Biol. Chem. 1997; 272:6685-6692). Briefly, fragments corresponding to the main exons of GATA-4 (292 bp), Nkx-2.5 (414 bp) and prodynorphin (424 bp) genes have been inserted in the vector pCRII-TOPO (Invitrdgen). Transcription of the vector linearized With ApaI, BamHI, or XbaI respectively generated sense strand mRNA of prodynorphin, GATA-4, or Nkx-2.5. Transcription in presence of [^32P]CTP of the plasmid linearized with BamHI produced the antisense mRNA strand of prodynorphin and Nkx-2.5, while transcription of the vector linearized with XbaI generated the antisense mRNA strand of GATA-4. In some experiments the analysis of mRNA expression has been performed by means of RT-PCR, as described in (Ventura C, Maioli M. Circ Res. 2000:87:189-194).
GTR1 stem cells were used in these studies. […]

GTR1 stem cells [3] = assay: In vitro nuclear run-off transcription in nuclei from treated GTR1 cells; assay type: cell-based, murine; conditions: 1 μM chelerithrine with retinoic esters of hyaluronic acid 0.75 mg/ml, 10 days; puromycin-selected cardiomyocytes
Description: Gene transcription studies. Gene transcription rate has been analyzed in nuclei isolated by an approach of “in vitro nuclear run-off transcription”, previously described (Ventura C., J Biol Chem. 1997; 272:6685-6692.; Ventura C. et al. J Biol. Chem. 1998; 273:13383-13386.). Briefly, nuclei have been resuspended in buffer containing 50 mmol/L Tris/HCl, pH 8.0, 5 mmol/L MgCl2, 0.1 mmol/L EDTA, 40% glycerol, 0.1 mmol/L dithiothreitol, 0.5 mmol/L phenylmethylsulfonylfluoride, 1 μmol/L leupeptin, and 10 mmol/L β-mercaptoethanol. 100 μl of 2× reaction buffer (10 mmol/L Tris/HCl, pH 7.5, 5 mmol/L MgCl2, 0.3 mol/L KCl, 5 mmol/L dithiothreitol, 1 mmol/L of ATP, GTP, and CTP), and 5 μl of [α-^32P]UTP (3000 Ci/mmol) have been added to the nuclear suspension (90 μl). Samples were then incubated at room temperature for 15 min. The reaction has been stopped by digesting the DNA in presence of RNase-free DNase. The nuclear RNA has been isolated as described in Ventura C et al. J Biol Chem. 1997; 272:6685-6692. Approximately 5×10^6 cpm of ^32P labeled nuclear RNA were hybridized for 12 hours at 55° C. in presence of cold (not radioactive) probes of antisense mRNA of GATA-4, Nkx-2.5 or prodynorphin, generated, as described above, in absence of radiolabeled ribonucleotides. […]

Compound	cells that differentiate in embryonic cardiomyocytes (P19 cells; P19 cells in presence of DMSO)	overall efficiency of cardiogenic effect (P19 cells; pluripotent murine cells in vitro)	percentage of totipotent stem cells undergoing cardiomyocyte differentiation [1]	effect of chelerithrine on the ester-induced expression of cardiospecific genes (MHC, MLC) (GTR1 stem cells [2])	effect of chelerithrine on the ester-induced expression/transcription of cardiogenic genes (GATA-4, Nkx-2.5, prodynorphin) (GTR1 stem cells [3])
C[S+](C)[O-] [DMSO, dimethylsulfoxide]	15-20%	rather low	unable to produce a significant increase		
COc1ccc2c(c[n+](C)c3c4cc5c(cc4ccc23)OCO5)c1OC [chelerithrine]				antagonized	antagonized
